Assay [1] deals with P388. Description: cells. The class given is functional. As to conditions: Mus musculus.
Assay [2] relates to SN12K1. Description: cells. As to conditions: Homo sapiens. The class given is functional.
Assay [3] has as its system H9c2. Description: cells. The following applies: Rattus norvegicus, H9c2, Myocardium. The class given is functional, cell-based.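 Also: confirmatory concentration-response retest of ultra-high-throughput screening hits for modulation of myocardial damage; cell death induced by hydrogen peroxide oxidative stress; compound pretreatment for 60 min then peroxide exposure for 2 h; potency is for protecting the cells against peroxide damage rather than for killing them.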
Assay [4] in a line: Shn3 3'UTR reporter inhibitors, dose response, cell-based, Clone20 osteoblasts, firefly luciferase, cherry-picked (AID 624132).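 Also: firefly luciferase luminescence from reporter carrying the Shn3 3'UTR in osteoblasts.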 In kind it is functional.
Assay [5] is described as follows: control 3'UTR Renilla luciferase suppression, dose response, counter-screen for Shn3 inhibitor project, cell-based, Clone20-Shn3RL, cherry-picked (AID 624133). The class given is functional. On the technique in general: A counterscreen serves to expose hits that act by an unwanted route or on another target.
The nature of assay [6]: HepG2 cell cytotoxicity, dose response, cytotoxicity control for Shn3 inhibitor project, CellTiter-Glo, cherry-picked (AID 624134). In kind it is functional, cell-based. In general terms: ATP-based viability assays read luminescence as a measure of living cells.
The subject of assay [7] is P388/ADR. Description: cells. In kind it is functional. As to conditions: Mus musculus.
For assay [8], the target named is T1, Polyadenylate-binding protein 1 (Homo sapiens, UniProt P11940). Description: PABP1 MLLE–PAM2 binding inhibitor potency, dose response, biochemical, fluorescence polarization, FITC-PAM2 peptide (AID 602259). The class given is functional. The following applies: read-out: IC50_Mean. (In general: Fluorescence polarisation rises when a labelled molecule tumbles more slowly, as on binding a larger partner.)

Assay [9] addresses T1, Polyadenylate-binding protein 1. Description: PABP1 MLLE–PAM2 interaction inhibitors, dose response, miRNA deadenylation inhibitor project, biochemical, fluorescence polarization, Cy5-PAM2 peptide, secondary (AID 602260). The class given is functional. As to conditions: read-out: IC50_Mean.
A short description of assay [10]: inhibitors of intracellular T. cruzi replication, confirmation, NIH3T3 host cells, beta-gal luminescence (AID 2044).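 Also: intracellular parasites grown in NIH/3T3 mouse fibroblasts as host cells; luminescent beta-galactosidase reporter signal from transgenic T. cruzi replicating inside host cells; inhibitors lower the luminescence signal.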 The class given is functional, cell-based.
Assay [11] deals with Streptococcus sp. 'group A'. Description: growth inhibition of control SK(-) GAS strain, dose response, counter-screen for streptokinase expression inhibitor project, luminescence, kanamycin, BacTiterGlo, confirmation (AID 1900). The class given is functional, organism-based.
Assay [12] has as its target T2, Streptokinase A (Streptococcus pyogenes serotype M1, UniProt P10520).
T2 sequence (P10520 whole entry): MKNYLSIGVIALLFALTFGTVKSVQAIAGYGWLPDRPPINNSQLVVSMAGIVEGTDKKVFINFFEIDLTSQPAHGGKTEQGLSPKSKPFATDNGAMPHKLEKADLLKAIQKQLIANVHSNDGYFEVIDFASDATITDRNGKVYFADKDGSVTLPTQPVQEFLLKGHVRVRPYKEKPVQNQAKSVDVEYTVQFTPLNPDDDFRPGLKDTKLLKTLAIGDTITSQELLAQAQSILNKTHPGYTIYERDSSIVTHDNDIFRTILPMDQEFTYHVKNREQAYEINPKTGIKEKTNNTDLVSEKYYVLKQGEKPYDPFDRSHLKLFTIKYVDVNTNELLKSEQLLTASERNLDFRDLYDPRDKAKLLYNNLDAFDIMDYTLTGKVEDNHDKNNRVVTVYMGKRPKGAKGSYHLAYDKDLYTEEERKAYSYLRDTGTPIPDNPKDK
Description: S. pyogenes streptokinase expression inhibitors, potency, dose response, plasminogen activation absorbance, OD405 (AID 1914).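 Also: secreted streptokinase activity via plasminogen activation per viability signal from cell pellet.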 In kind it is functional, Streptococcus pyogenes M1 GAS.

Assay [13] is described as follows: cytotoxicity toward NIH3T3 fibroblasts, dose response, counter-screen, cell-based, ATP luminescence, mouse fibroblasts (AID 2010).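 Also: cells exposed to compound for about 90 hours before reading.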 The class given is functional.
For assay [14], the target named is Cytochrome P450 2D6 (Homo sapiens, UniProt P10635).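 Also: CYP2D6 member of a cytochrome P450 panel assay.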
The test system of assay [15] is Streptococcus. Description: Group A Streptococcus viability loss, dose response, counter-screen for streptokinase expression inhibitor project, luminescence, BacTiterGlo (AID 1915).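 Also: potency for reduction of bacterial viability or growth.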 The class given is functional, organism-based.
Assay [16] concerns the target T3, Heat shock factor protein 1 (Mus musculus, UniProt P38532).
T3 sequence (P38532 whole entry): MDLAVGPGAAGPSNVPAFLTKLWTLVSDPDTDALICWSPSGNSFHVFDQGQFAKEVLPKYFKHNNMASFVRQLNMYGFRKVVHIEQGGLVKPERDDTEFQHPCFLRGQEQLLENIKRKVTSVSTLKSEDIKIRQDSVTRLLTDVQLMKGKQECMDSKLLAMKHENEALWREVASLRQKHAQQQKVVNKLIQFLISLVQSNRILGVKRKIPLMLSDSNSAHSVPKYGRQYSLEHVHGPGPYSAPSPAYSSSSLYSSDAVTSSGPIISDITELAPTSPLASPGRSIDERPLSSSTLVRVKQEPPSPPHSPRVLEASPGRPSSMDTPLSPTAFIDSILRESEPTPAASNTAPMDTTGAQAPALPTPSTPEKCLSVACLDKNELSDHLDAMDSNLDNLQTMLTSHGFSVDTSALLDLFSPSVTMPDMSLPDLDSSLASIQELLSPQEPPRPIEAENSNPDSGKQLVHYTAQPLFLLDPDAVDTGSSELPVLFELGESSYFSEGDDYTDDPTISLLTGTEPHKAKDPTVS
Description: inhibition of MG132-induced HSE-luciferase signal, confirmation, cell-based, NIH3T3, luminescence, dose retest (AID 2382).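 Also: NIH3T3 fibroblasts with HSF1-driven luciferase reporter stressed by proteasome inhibitor MG132; luminescence from HSF1-driven luciferase expression after 8 hours of MG132 stress.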 The class given is functional.

A short description of assay [17]: Luminescence Cell-Based Dose Response HTS to Identify Inhibitors of 5'UTR Stem-Loop Driven Prion Protein mRNA Translation in H4 Neuroglioblastoma Cells. [Related pubchem assays: 1827 (Project Summary), 1813 (Primary HTS)]. In kind it is functional.
Assay [18] is described as follows: inhibitors of SNCA 5'UTR-driven reporter translation, confirmation, H4 neuroglioma cells, luminescence (AID 1988). In kind it is functional, cell-based.
For assay [19], the target named is Cytochrome P450 2C9 (Homo sapiens, UniProt P11712).
Assay [20] is described as follows: Luminescence Cell-Based Dose Response HTS to Identify Activators of Luciferase Translation or Activity in H4 […] Cells. [Related pubchem assays: 1829 (Project Summary), 1814 (Primary HTS)]. In kind it is functional.
Assay [21] addresses T4, Cytochrome P450 1A2 (Homo sapiens, UniProt P05177).
T4 sequence (P05177 whole entry): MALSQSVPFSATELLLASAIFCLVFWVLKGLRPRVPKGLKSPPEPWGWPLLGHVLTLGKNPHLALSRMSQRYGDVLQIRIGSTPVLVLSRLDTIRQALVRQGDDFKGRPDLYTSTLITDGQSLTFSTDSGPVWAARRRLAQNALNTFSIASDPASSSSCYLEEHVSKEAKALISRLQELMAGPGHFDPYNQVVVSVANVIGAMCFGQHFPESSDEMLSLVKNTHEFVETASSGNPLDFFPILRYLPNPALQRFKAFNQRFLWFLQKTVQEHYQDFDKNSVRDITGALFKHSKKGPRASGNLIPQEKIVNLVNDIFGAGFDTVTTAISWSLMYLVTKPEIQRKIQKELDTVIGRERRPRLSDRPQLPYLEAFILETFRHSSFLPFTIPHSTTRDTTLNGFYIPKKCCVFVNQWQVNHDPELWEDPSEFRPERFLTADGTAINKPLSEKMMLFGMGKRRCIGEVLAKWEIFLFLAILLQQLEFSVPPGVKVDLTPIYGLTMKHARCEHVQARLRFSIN

Active and inactive are the calls of the source.

T1 sequence (P11940 whole entry): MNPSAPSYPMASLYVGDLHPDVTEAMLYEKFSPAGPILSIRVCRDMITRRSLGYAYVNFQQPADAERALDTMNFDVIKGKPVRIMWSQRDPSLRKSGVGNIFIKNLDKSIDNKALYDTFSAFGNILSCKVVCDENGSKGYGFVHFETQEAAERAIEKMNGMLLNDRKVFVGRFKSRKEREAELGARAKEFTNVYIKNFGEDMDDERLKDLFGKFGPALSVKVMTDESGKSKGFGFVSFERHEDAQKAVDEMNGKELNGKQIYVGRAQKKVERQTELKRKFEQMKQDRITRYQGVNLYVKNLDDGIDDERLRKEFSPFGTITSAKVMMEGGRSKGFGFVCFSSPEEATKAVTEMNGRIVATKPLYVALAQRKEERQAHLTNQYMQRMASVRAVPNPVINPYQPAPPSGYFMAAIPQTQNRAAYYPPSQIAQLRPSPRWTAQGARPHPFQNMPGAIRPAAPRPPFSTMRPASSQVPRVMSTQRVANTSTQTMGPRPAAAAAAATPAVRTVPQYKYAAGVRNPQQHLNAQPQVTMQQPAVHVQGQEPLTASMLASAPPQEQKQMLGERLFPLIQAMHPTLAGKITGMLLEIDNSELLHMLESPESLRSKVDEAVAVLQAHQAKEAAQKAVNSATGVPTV
Sequence of Cytochrome P450 2C9 (P11712 whole entry): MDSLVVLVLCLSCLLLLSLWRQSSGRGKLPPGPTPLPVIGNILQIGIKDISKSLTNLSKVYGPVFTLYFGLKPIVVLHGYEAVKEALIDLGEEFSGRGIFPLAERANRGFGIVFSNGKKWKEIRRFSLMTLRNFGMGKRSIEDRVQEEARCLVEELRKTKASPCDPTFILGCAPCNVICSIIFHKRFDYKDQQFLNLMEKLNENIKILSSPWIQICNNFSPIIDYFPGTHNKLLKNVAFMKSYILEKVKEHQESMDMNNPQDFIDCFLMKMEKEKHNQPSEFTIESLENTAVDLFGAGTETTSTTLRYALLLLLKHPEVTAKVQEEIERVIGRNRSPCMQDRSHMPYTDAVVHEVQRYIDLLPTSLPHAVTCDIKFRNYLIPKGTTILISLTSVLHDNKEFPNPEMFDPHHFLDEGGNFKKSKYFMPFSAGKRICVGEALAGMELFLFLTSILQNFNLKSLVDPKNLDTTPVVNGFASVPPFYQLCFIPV
Sequence of Cytochrome P450 2D6 (P10635 whole entry): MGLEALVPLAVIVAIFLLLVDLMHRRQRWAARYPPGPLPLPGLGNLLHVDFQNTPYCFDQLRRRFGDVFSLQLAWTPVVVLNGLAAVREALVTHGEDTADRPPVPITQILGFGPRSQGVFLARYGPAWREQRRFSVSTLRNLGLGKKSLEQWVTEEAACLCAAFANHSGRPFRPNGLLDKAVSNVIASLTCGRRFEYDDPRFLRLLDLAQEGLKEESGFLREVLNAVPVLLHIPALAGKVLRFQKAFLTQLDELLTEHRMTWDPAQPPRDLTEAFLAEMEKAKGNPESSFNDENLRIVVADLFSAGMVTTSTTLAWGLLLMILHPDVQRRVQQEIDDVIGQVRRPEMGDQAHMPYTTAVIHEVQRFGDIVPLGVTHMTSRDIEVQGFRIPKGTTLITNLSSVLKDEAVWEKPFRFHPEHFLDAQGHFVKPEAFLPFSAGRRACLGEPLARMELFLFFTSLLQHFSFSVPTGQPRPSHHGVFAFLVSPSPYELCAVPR

For orientation: GI50 means the concentration giving 50% growth inhibition. Consider `O=[N+]([O-])c1cnccc1-n1nnc2ccccc21`, for which the GI50 in assay [1] is 7.96 µM (inactive); in assay [2], 27.7 µM (inactive).
On to `COc1cccc(CN2CCN(C(=O)c3cc(-c4cccnc4)nc4ccc(C)cc34)CC2)c1`, for which, in assay [3], the IC50 is 11.6 µM (active).
As usually defined, the AC50 is the midpoint of the concentration-response curve, whichever way the signal moves. `O=C(Nc1ccc(N2CCOCC2)c(Cl)c1)c1ccc([N+](=O)[O-])o1`: the AC50 is 6.23 µM (active) in assay [4], 14.7 µM (active) in assay [5] and 24.9 µM (active) in [6].
For the compound `CS(=O)(=O)c1ccc(C(=O)OCC(=O)Nc2cccnc2Cl)cc1[N+](=O)[O-]`, the results for the AC50 in assay [4], in assay [5] and in [6] were 9.09 µM (active), 12.9 µM (active) and > 70 µM (inactive), respectively.
As for `CSCSCC(N)CO.Cc1[nH]c(=O)[nH]c(=O)c1/C=C/C(=O)O`, the GI50 in [1], in assay [7] and in [2] was > 625 µM (inactive) throughout.
As for `c1ccc2cc3c(cc2c1)OP1(Oc2cccc4cccnc24)(O3)Oc2cc3ccccc3cc2O1`, the GI50 is 1.2 µM (inactive) in assay [1], 1.42 µM (inactive) in assay [7] and 3.31 µM (inactive) in [2].
Take `COc1ccc(C(C)=O)cc1COC(=O)Cc1nnc(O)c2ccccc12`: the IC50 in [3] is > 79 µM (inactive).
Regarding `CC(=O)C1=C(O)C(=O)N(C)C1c1ccccc1[N+](=O)[O-]` (stereo unspecified), the IC50 in assay [8] and in [9] was > 66 µM (inactive) each time.
Consider `O=C(O)C1CCC(=O)N1S(=O)(=O)c1ccccc1` (stereo unspecified), for which the GI50 in assay [1], in [7] and in assay [2] was > 100 µM (inactive) throughout.
With `C1CN1c1nc(N2CC2)nc(N2CC2)n1`, the GI50 is 0.465 µM (active) in assay [1], 0.466 µM (active) in [7] and 5.21 µM (inactive) in assay [2].
With `O=S(=O)(c1ccc(Cl)cc1)c1cc(O)ccc1O`, the IC50 in assay [3] was 12.4 µM (active).
In the case of `CCOc1cccc(-c2nn3c(-c4ccccn4)nnc3s2)c1`, in assay [3], the IC50 is > 79 µM (inactive).
Take `CCN1C(=O)[C@H]2[C@H]3CN=C(SCC(=O)c4ccccc4)N3[C@@](C)(C(=O)OC)[C@H]2C1=O`: the IC50 in [8] and in assay [9] was > 66 µM (inactive) each time.
Regarding `Cc1ccc(OP2(=O)Oc3ccc4ccccc4c3CN2c2ccc(Cl)cc2)cc1C` (stereo unspecified), the GI50 in assay [1], in assay [7] and in assay [2] was > 100 µM (inactive) in each case.
`CC(C)C1C(=O)N(Cc2cn(CCC3OCCO3)nn2)CCS(=O)(=O)N1Cc1ccc(-c2ccc(Cl)cc2)cc1` (stereo unspecified): the AC50 in assay [4] is 2.13 µM (active); in assay [5] it was 2.83 µM (active); in [6], > 70 µM (inactive).
By EC50 is commonly meant the concentration needed to bring the measured effect to its halfway point. With `O=C(/C=C/c1ccccc1)NC(NC(=S)Nc1ccc(Cl)cc1)C(Cl)(Cl)Cl` (stereo unspecified), the AC50 in assay [4] was 5.13 µM (active); in [5], 30.4 µM (active); in assay [14], 7.94 µM (inconclusive); in assay [6], 26.7 µM (active). The EC50 in [10] is 1.08 µM (active); in assay [11] it was 5.79 µM (active); in assay [12] it was > 150 µM (not active); in [13], > 60 µM (not active); in assay [15] it was > 150 µM (not active).
`Cc1c(Cl)cccc1N=C(S)NCCc1ccc(S(N)(=O)=O)cc1`: the IC50 in assay [8] and in assay [9] was > 66 µM (inactive) in each case.
With `CCN(c1c(C)n(C)n(-c2ccccc2)c1=O)S(C)(=O)=O`, the IC50 in assay [8] and in assay [9] was > 66 µM (inactive) throughout.
As for `O=C(NC(=S)Nc1ncccn1)c1ccccc1Cl`, the IC50 in assay [8] and in [9] was > 66 µM (inactive) throughout.
As to `N#Cc1c(O)nc(-c2ccco2)c2c1CCCC2`, the IC50 in [8] and in assay [9] was > 66 µM (inactive) in each case.
With `c1ccc(-c2cn3nc(-c4ccccc4)sc3n2)cc1`, the EC50 in assay [16] was < 0.16 µM (active); in assay [17], 0.583 µM (active); in assay [18] it was 0.402 µM (inconclusive).
As to `Cc1c(NC(=O)Cn2[nH]c(=O)c3ccccc3c2=O)c(=O)n(-c2ccccc2)n1C`, in assay [3], the IC50 is 38.5 µM (inactive).
Take `CN(C)S(=O)(=O)c1cccc(NC(=O)c2cccc(S(=O)(=O)N3CCc4ccccc43)c2)c1`: the AC50 in [4] was 3.92 µM (active); in assay [5] it was 11.7 µM (active); in assay [6] it was 60.9 µM (active).
With `COc1cc2c(C#CCCO)c(-c3ccsc3)oc(=O)c2cc1OC`, the IC50 in assay [3] was 20.7 µM (active).
Take `CC(C)c1nc2oc3ccccc3c(=O)c2c(=O)n1-c1ccccc1`: the AC50 in assay [19] is 1.78 µM (inconclusive); in assay [21], 39.8 µM (inconclusive). Moreover, the EC50 in [20] is 63.4 µM (active).
With `CCOC(=O)C[n+]1ccc2c([nH]c3cc(OC)ccc32)c1C`, the GI50 was 38.9 µM (inactive) in assay [1], 35.1 µM (inactive) in assay [7] and > 80.2 µM (inactive) in assay [2].
Taken in the same sequence, the figures for `S=C(NCCCCCCNC(=S)Nc1c2ccccc2nc2ccccc12)Nc1c2ccccc2nc2ccccc12` were 44.5 µM (inactive), 65 µM (inactive) and 6.22 µM (inactive).
The matching figures for `C=CC1(NC(=O)c2ccccc2)CCC(C(C)(C)C)CC1` (stereo unspecified): 12.2 µM (inactive), 22.2 µM (inactive) and 32.4 µM (inactive).
For `COc1ccccc1C(=O)Nc1nc(-c2ccc3c(c2)OCCO3)cs1`, the IC50 in assay [3] was > 79 µM (inactive).
On the same count and under the same terms, next, `COc1ccccc1OCC(=O)Nc1sc2c(c1C(=O)NCC1CCCO1)CCC2` (stereo unspecified): 30.4 µM (inactive).
For `O=NN(CCCl)C(=O)NCCCl` [CARMUSTINE], the figures for the GI50 in [1], in [7] and in assay [2] were 6.62 µM (inactive), 7.29 µM (inactive) and 58.3 µM (inactive), respectively.
